Measured values: patent US12194024B2, “Pharmaceutical composition of MDM2 inhibitor and use thereof for preventing and/or treating disease” (ASCENTAGE PHARMA (SUZHOU) CO., LTD., priority 2019, dated 2025)

Test system: human OCI-AML-3 AML xenograft tumor
Assay: Subcutaneous OCI-AML-3 AML mouse xenograft tumor model
Type: in vivo, NOD SCID mice
Conditions: Compound 2 50 mg/kg orally q2d, Azacitidine 2 mg/kg i.v., Decitabine 1 mg/kg i.v.
Procedure: For subcutaneous model, OCI-AML-3 cells (1×10^6) are injected subcutaneously into the right side of the abdomen of 6- to 8-week-old mice. About 10 days after the cell inoculation, the mice are randomly divided into groups based on the primary tumor size achieving about 100-150 mm^3 of average tumor volume.
The tumor diameter is measured twice using a vernier caliper each week. The computational formula of the tumor volume (TV) is: TV=a×b^2/2. In the computational formula, a and b represent the length and width of the tumor measurement respectively. The computational formula of the relative tumor volume (RTV) is: RTV=VtN1. In the computational formula, V1 is the tumor volume when being grouped and administered, and Vt is the tumor volume when being measured at a certain day after the administration.
The tumor remission rate (%) is derived by dividing the number of SD (Stable Disease), PR (Partial response) and CR (Complete response) appearing in the tumor bearing mice after treatment by the total number of mice in the group×100%.
The synergistic analysis uses the following formula (reference can be made to Gould S E et al., Translational value of mouse models in oncology drug development, Nature medicine, 2015 21, 431-439): synergistic factor=((A/C)×(B/C))/(AB/C); A=RTV value of the A drug alone group; B=RTV value of the B drug alone group; C=RTV value of the vehicle control group, AB=RTV value of the AB combined group (Clarke R., Issues in experimental design and endpoint analysis in the study of experimental cytotoxic agents in vivo in breast cancer and other models[J], Breast Cancer Research & Treatment, 1997, 46 (2-3):255-278).
For subcutaneous model, OCI-AML-3 cells (1×10^6) are injected subcutaneously into the right side of the abdomen of 6- to 8-week-old mice. About 10 days after the cell inoculation, the mice are randomly divided into groups based on the primary tumor size achieving about 100-150 mm^3 of average tumor volume. Compound 2 is administered alone or in combination (50 mg/kg, is taken orally, every other day for 15 days) and Aza (2 mg/kg, intravenous injection each day for 7 days) or Dec (1 mg/kg, intravenous injection each day for 7 days). The tumor volume is measured twice using a vernier caliper each week and is represented by following formula in mm^3: V=0.5a×b^2; in the formula, a and b are the long diameter and short diameter of the tumor respectively. […] RTV=VtN1; wherein V1 and Vt are the average tumor volume on the first day (day 1) in the treatment, and the average tumor volume of a certain time point (day t) respectively.
Azacitidine is administered following 2 mg/kg, caudal vein injection, qd×7d, drug withdrawal 7 days, then qd×2 day regimens for seven days (corresponding to the number 68 regimen in table 7).

## CCN1[C@@H](C(=O)NC23CCC(C(=O)O)(CC2)CC3)[C@H](c2cccc(Cl)c2F)[C@]2(C(=O)Nc3cc(Cl)ccc32)C12CCCCC2 [Compound 2]
  T/C value (%) (d15): 84.8%
d15, vehicle 16.5 ± 4.1
  Relative tumor volume (RTV, Mean ± SEM): 14.0 ± 2.7
